Patent US11026426B2, “Oxadiazole and phenol derivatives as antibacterial and/or herbicidal agents” (NORTHERN ILLINOIS RESEARCH FOUNDATION, priority 2017, dated 2021)
Like-named read-outs stand apart in the source and are kept apart here.

Columns and labels:
Micrococcus luteus [1] = assay: Antibacterial preliminary screening ML; type: cell-based; settings: score 0-3; further: key: 0 represents no inhibition; 3 is comparable to commercial antibiotic control
Mycobacterium smegmatis [2] = assay: Antibacterial preliminary screening MS; type: cell-based; settings: score 0-3; further: key: 0 represents no inhibition; 3 is comparable to commercial antibiotic control
Mycobacterium smegmatis [3] = assay: Antibacterial assay zone of inhibition Ms; type: cell-based
[4] = tested on: Corynebacterium pseudodiphtheriae; assay: Antibacterial preliminary screening CP; type: cell-based; settings: score 0-3;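 further: 0 is no inhibition and 3 matches the commercial antibiotic control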
Corynebacterium xerosis [5] = assay: Antibacterial preliminary screening CX; type: cell-based; settings: score 0-3; further: key: 0 represents no inhibition; 3 is comparable to commercial antibiotic control
lettuce seeds = assay: Lettuce leaf assay; type: in vivo; design: key: 0 (no effect); 5(complete inhibition or bleaching); settings: ranking 0-5
Method in brief: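 Qualitative assay: compounds in volatile organic solvent applied to filter paper in a petri dish, solvent evaporated, lettuce seeds and 5 mL water added to give test concentrations. Germination, root development and leaf bleaching scored days 3 and 4, ranked 0 (no effect) to 5 (complete inhibition or bleaching).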

Micrococcus luteus [6] = assay: Antibacterial assay zone of inhibition Ml; type: cell-based
Klebsiella pneumonia [7] = assay: Antibacterial preliminary screening KP; type: cell-based; settings: score 0-3; further: key: 0 represents no inhibition; 3 is comparable to commercial antibiotic control
Bacillus cereus [8] = assay: Antibacterial preliminary screening BC; type: cell-based; settings: score 0-3
[9] = tested on: Burkholderia thailandensis; type: cell-based
Escherichia coli [10] = assay: Antibacterial assay zone of inhibition Ec; type: cell-based
Ec IspE = Ec IspE (Escherichia coli, UniProt P62615); assay: Kinase-Glo luminescent enzymatic assay Ec IspE; type: biochemical
Chain of Ec IspE (P62615 whole entry): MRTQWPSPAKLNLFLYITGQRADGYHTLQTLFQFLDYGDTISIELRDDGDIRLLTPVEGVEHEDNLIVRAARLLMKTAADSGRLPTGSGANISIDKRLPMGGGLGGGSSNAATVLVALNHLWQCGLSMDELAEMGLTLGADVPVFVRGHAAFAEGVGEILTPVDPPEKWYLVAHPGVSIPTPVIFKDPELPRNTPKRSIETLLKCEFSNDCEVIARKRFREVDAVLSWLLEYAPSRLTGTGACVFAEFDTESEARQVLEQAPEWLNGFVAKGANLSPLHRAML

Bt IspE [11] = target: T1, Bt IspE (Burkholderia thailandensis, UniProt Q2T1B6); assay: biochemical
T1 sequence (Q2T1B6 whole entry): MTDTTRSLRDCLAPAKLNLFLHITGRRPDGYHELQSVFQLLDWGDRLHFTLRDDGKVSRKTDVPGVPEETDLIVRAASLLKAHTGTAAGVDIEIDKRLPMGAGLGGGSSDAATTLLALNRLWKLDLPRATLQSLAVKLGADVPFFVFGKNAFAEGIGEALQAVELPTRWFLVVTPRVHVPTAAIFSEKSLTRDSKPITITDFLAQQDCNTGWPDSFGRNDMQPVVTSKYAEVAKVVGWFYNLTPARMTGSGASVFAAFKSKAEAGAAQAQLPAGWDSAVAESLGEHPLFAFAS

[12] = target: Lycopersicon esculentum IspE (LeIspE) (Solanum lycopersicum, UniProt P93841); assay: Thermal shift assay against LeIspE; type: binding
Chain of Lycopersicon esculentum IspE (LeIspE) (P93841 89-401): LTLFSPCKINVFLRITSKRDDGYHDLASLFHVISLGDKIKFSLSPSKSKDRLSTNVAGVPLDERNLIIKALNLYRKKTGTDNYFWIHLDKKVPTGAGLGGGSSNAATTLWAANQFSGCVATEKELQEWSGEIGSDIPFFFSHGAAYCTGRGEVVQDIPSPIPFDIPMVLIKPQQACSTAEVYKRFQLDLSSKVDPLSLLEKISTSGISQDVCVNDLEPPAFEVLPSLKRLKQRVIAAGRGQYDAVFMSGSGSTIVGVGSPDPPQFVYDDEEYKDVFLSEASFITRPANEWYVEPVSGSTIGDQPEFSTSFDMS

Klebsiella pneumonia [13] = assay: Antibacterial assay zone of inhibition Kp; type: cell-based
Bacillus cereus [14] = assay: Antibacterial assay zone of inhibition Bc; type: cell-based
Pseudomonas aeruginosa [15] = assay: Antibacterial preliminary screening PA; type: cell-based
Corynebacterium xerosis [16] = assay: Antibacterial assay zone of inhibition Cx; type: cell-based
AtIspF = AtIspF (Arabidopsis thaliana, UniProt Q9CAK8); assay: University of Hamburg photometric enzymatic inhibition assay AtIspF; type: biochemical; settings: read-out: AtIspF IC50
Chain of AtIspF (Q9CAK8 53-231): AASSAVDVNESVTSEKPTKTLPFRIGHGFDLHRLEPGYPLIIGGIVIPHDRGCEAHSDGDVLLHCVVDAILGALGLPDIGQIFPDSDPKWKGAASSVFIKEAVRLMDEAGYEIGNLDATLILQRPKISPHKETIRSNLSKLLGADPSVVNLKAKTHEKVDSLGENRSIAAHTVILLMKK
Method in brief: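 Coupled photometric assay (CMP kinase/pyruvate kinase/lactate dehydrogenase, NADH consumption) with 2.4 mU AtIspF and 1 mM 4-diphosphocytidyl-2C-methylerythritol 2-phosphate, 2 mM ATP, in 100 mM Tris-HCl pH 8.0, 10 mM MgCl2, 1.1% DMSO. Monitored at 27 °C.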

LeIspE = LeIspE (Solanum lycopersicum, UniProt P93841); assay: University of Hamburg photometric enzymatic inhibition assay LeIspE; type: biochemical, Lycopersicon esculentum; settings: read-out: LeIspE IC50
Chain of LeIspE (P93841 89-401): as the sequence (P93841 89-401) above
Method in brief: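 Photometric coupled assay with pyruvate kinase/lactate dehydrogenase following NADH (460 μM). Mix: 100 mM Tris-HCl pH 8.0, 10 mM MgCl2, 1 mM DTT, 2.5 mM phosphoenolpyruvate, 2 mM ATP, 1 mM 4-diphosphocytidyl-2-C-methylerythritol, 1.1% DMSO, 2.4 mU IspE; incubated at 27° C.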

Bt IspE [17] = target: T1, Bt IspE; assay: ITC binding study with Bt IspE
Protocol: All ITC experiments were performed under the same conditions as described herein. Compounds were dissolved in DMSO and brought to concentration with the dialysis buffer, with a maximum DMSO concentration of 10% by volume which was matched between ligand and enzyme, and centrifuged at 10,000 RPM for 10 minutes. The dialysis buffer was used for all sample dilutions to ensure buffers matching between the titrant and titrate, thus minimizing the excess heat due to buffer mismatch. ITC experiments were performed with IspE in the cell and ligand in the syringe. The initial injection volume was 2 μL (omitted) followed by 27 10 μL injections, every 240 seconds. Samples were run at 25° C., at pH 7.4, with a stirring speed of 307 RPM. Dilution runs were performed to allow determination of background heats caused by solution mismatch and instrument noise. Dilution runs were performed with ligand (at the same concentration as in the experiment run) in the syringe titrated into the dialysis buffer in the cell. Data were fit using OriginPro 7 with the ITC add-on by the manufacturer.

Pseudomonas aeruginosa [18] = assay: Antibacterial assay zone of inhibition Pa; type: cell-based
[19] = target: T2, Mycobacterium tuberculosis IspD (MtIspD) (Mycobacterium tuberculosis, UniProt P9WKG9); assay: Thermal shift assay against MtIspD; type: binding
T2 sequence (P9WKG9 1-231): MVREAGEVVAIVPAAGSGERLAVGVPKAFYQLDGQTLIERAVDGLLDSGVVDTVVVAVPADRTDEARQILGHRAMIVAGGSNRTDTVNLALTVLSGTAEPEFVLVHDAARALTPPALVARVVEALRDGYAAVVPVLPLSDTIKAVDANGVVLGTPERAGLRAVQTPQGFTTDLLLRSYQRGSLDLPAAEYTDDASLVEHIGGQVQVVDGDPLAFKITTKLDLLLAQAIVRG

Escherichia coli [20] = assay: Antibacterial preliminary screening EC; type: cell-based; settings: score 0-3
AtIspD = AtIspD (Arabidopsis thaliana, UniProt P69834); assay: University of Hamburg photometric enzymatic inhibition assay AtIspD; type: biochemical; settings: read-out: AtIspD IC50
Chain of AtIspD (P69834 62-302): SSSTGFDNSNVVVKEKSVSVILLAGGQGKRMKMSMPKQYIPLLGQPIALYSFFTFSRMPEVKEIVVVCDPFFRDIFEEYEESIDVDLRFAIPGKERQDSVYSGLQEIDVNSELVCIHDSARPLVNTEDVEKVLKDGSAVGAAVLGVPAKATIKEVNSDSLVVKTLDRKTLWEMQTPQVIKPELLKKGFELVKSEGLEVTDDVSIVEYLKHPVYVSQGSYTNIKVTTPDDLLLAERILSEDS
Method in brief: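 Coupled photometric assay: 2.4 mU AtIspD with 1 mM (2R,3S)-2,3-dihydroxy-4-oxopentyl phosphate, 2.1 mM CTP, excess IspE (0.4 U), ATP, pyruvate kinase/lactate dehydrogenase and 460 μM NADH. Run in 100 mM Tris-HCl pH 8.0, 10 mM MgCl2, 1 mM DTT, 1.1% DMSO at 27 °C, monitored photometrically.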

[21] = tested on: Burkholderia thailandensis; type: cell-based; settings: preliminary screening, score 0-3
[22] = tested on: Corynebacterium pseudodiphtheriae; assay: Antibacterial assay zone of inhibition Cp; type: cell-based

Clc1ccc(OCc2nnc(-c3nc4ccccc4s3)o2)c(Cl)c1 [HGN-333, 2-(benzo[d]thiazol-2-yl)-5-((2,4-dichlorophenoxy)methyl)-1,3,4-oxadiazole]
ML score (Micrococcus luteus [1]): 0
MS score (Mycobacterium smegmatis [2]): 0
Antibacterial Ms zone of inhibition (Mycobacterium smegmatis [3]; 0.1 mM): 0 millimeters
Antibacterial Ms zone of inhibition (Mycobacterium smegmatis [3]; 0.5 mM): 0 millimeters
Antibacterial Ms zone of inhibition (Mycobacterium smegmatis [3]; 1 mM): 0 millimeters
CP score [4]: 0
CX score (Corynebacterium xerosis [5]): 0
Bleaching (lettuce seeds; 0.15 mM): 0
Germination (lettuce seeds; 0.15 mM): 0
Root Dev. (lettuce seeds; 0.15 mM): 0
Bleaching (lettuce seeds; 0.3 mM): 0
Germination (lettuce seeds; 0.3 mM): 0
Root Dev. (lettuce seeds; 0.3 mM): 0
Antibacterial Ml zone of inhibition (Micrococcus luteus [6]; 0.1 mM): 0 millimeters
Antibacterial Ml zone of inhibition (Micrococcus luteus [6]; 0.5 mM): 0 millimeters
Antibacterial Ml zone of inhibition (Micrococcus luteus [6]; 1 mM): 0 millimeters
KP score (Klebsiella pneumonia [7]): 0
BC score (Bacillus cereus [8]): 0
Antibacterial Bt zone of inhibition ([9]; 0.1 mM): 0 millimeters
Antibacterial Bt zone of inhibition ([9]; 0.5 mM): 15 millimeters
Antibacterial Bt zone of inhibition ([9]; 1 mM): 19 millimeters
Antibacterial Ec zone of inhibition (Escherichia coli [10]; 0.1 mM): 0 millimeters
Antibacterial Ec zone of inhibition (Escherichia coli [10]; 0.5 mM): 0 millimeters
Antibacterial Ec zone of inhibition (Escherichia coli [10]; 1 mM): 0 millimeters
IC50 (Ec IspE): 3 µM
IC50 (Bt IspE [11]): 28 µM
LeIspE melting point change [12]: −1.75 °C
LeIspE melting temp [12]: 47.75 °C
Antibacterial Kp zone of inhibition (Klebsiella pneumonia [13]; 0.1 mM): 0 millimeters
Antibacterial Kp zone of inhibition (Klebsiella pneumonia [13]; 0.5 mM): 0 millimeters
Antibacterial Kp zone of inhibition (Klebsiella pneumonia [13]; 1 mM): 0 millimeters
Antibacterial Bc zone of inhibition (Bacillus cereus [14]; 0.1 mM): 0 millimeters
Antibacterial Bc zone of inhibition (Bacillus cereus [14]; 0.5 mM): 0 millimeters
Antibacterial Bc zone of inhibition (Bacillus cereus [14]; 1 mM): 12.5 millimeters
effectiveness against Pseudomonas aeruginosa (Pseudomonas aeruginosa [15]): moderately effective
PA score (Pseudomonas aeruginosa [15]; score 0-3): 2
Antibacterial Cx zone of inhibition (Corynebacterium xerosis [16]; 0.1 mM): 0 millimeters
Antibacterial Cx zone of inhibition (Corynebacterium xerosis [16]; 0.5 mM): 0 millimeters
Antibacterial Cx zone of inhibition (Corynebacterium xerosis [16]; 1 mM): 0 millimeters
IC50 (AtIspF): 291 µM
IC50 (LeIspE): 31 µM
KD app (ITC, words) (Bt IspE [17]): in the nanomolar range
binding stoichiometry (ITC) (Bt IspE [17]): 0.903
ΔH° (ITC) (Bt IspE [17]): -8.6 kcal/mol
−TΔS (ITC) (Bt IspE [17]): -17.8 kcal/mol
entropic contribution −TΔS (ITC) (Bt IspE [17]; b178, unit not given): −17.8
melting point: 163 to 165 °C
Antibacterial Pa zone of inhibition (Pseudomonas aeruginosa [18]; 0.1 mM): 0 millimeters
Antibacterial Pa zone of inhibition (Pseudomonas aeruginosa [18]; 0.5 mM): 18 millimeters
Antibacterial Pa zone of inhibition (Pseudomonas aeruginosa [18]; 1 mM): 25 millimeters
MtIspD melting point change [19]: 1.3 °C
MtIspD melting temp [19]: 49.3 °C
EC score (Escherichia coli [20]): 0
IC50 (AtIspD): 151 µM
BT score [21]: 0
Antibacterial Cp zone of inhibition ([22]; 0.1 mM): 0 millimeters
Antibacterial Cp zone of inhibition ([22]; 0.5 mM): 0 millimeters
Antibacterial Cp zone of inhibition ([22]; 1 mM): 0 millimeters
